According to the supplement of paper PMC4862054:

Columns and labels:
Settings in all cases: incubation time: 72 h
[1] = system: BT-549; assay: normalised viability (% of control), CellTiter-Blue; higher = more viable cells (about 100 = DMSO control)
How it was run: (§1)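 Seeded at 20 µl suspension per well onto compound-loaded 384-well plates, breast cancer cell lines were incubated 72 h. CellTiter-Blue fluorescence at 560/590 nm was then read, with each plate normalised to vehicle (100) and a positive kill control (0). Normalised viability is reported at a single listed concentration of the series.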

[2] = system: CAL-120; assay: as above
How it was run: as §1

[3] = system: CAL-51; assay: as above
How it was run: as §1

[4] = system: DU-4475; assay: as above
How it was run: as §1

[5] = system: HCC1143; assay: as above
How it was run: as §1

[6] = system: HCC1937; assay: as above
How it was run: as §1

[7] = system: HDQ-P1; assay: as above
How it was run: as §1

[8] = system: MDA-MB-436; assay: as above
How it was run: as §1

[9] = system: MDA-MB-453; assay: as above
How it was run: as §1

[10] = system: MFM-223; assay: as above
How it was run: as §1

[11] = system: SK-BR-3; assay: as above
How it was run: as §1

[12] = system: BT-474; assay: drug sensitivity score (DSS), CellTiter-Blue viability (DSS (AUC-based score)); higher = stronger viability inhibition; extreme values may be limits of the assay
Experimental: (§2)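 DSRT with the CellTiter-Blue (resazurin reduction) viability readout, fluorescence 560/590 nm, 72 h incubation. Plates were normalised to DMSO and benzethonium chloride controls. DSS is computed from the area under the fitted dose-response curve (5 or 9 concentrations).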

[13] = system: BT-549; assay: as above
Experimental: as §2

[14] = system: CAL-120; assay: as above
Experimental: as §2

[15] = system: CAL-148; assay: as above
Experimental: as §2

[16] = system: CAL-51; assay: as above
Experimental: as §2

[17] = system: CAL-85-1; assay: as above
Experimental: as §2

[18] = system: DU-4475; assay: as above
Experimental: as §2

[19] = system: HCC1143; assay: as above
Experimental: as §2

[20] = system: HCC1937; assay: as above
Experimental: as §2

[21] = system: HDQ-P1; assay: as above
Experimental: as §2

[22] = system: Hs578T; assay: as above
Experimental: as §2

[23] = system: MDA-MB-231; assay: as above
Experimental: as §2

[24] = system: MDA-MB-436; assay: as above
Experimental: as §2

[25] = system: MDA-MB-453; assay: as above
Experimental: as §2

[26] = system: MDA-MB-468; assay: as above
Experimental: as §2

[27] = system: MFM-223; assay: as above
Experimental: as §2

[28] = system: SK-BR-3; assay: as above
Experimental: as §2

Row | Compound | normalised viability ([1]; 5000 nM) [%] | normalised viability ([2]; 5000 nM) [%] | normalised viability ([3]; 50 nM) [%] | normalised viability ([4]; 50 nM) [%] | normalised viability ([5]; 5000 nM) [%] | normalised viability ([6]; 5000 nM) [%] | normalised viability ([7]; 50 nM) [%] | normalised viability ([8]; 5000 nM) [%] | normalised viability ([9]; 50 nM) [%] | normalised viability ([10]; 5000 nM) [%] | normalised viability ([11]; 5000 nM) [%] | drug sensitivity score [12] | drug sensitivity score [13] | drug sensitivity score [14] | drug sensitivity score [15] | drug sensitivity score [16] | drug sensitivity score [17] | drug sensitivity score [18] | drug sensitivity score [19] | drug sensitivity score [20] | drug sensitivity score [21] | drug sensitivity score [22] | drug sensitivity score [23] | drug sensitivity score [24] | drug sensitivity score [25] | drug sensitivity score [26] | drug sensitivity score [27] | drug sensitivity score [28] | normalised viability ([1]; 10000 nM) [%] | normalised viability ([2]; 10000 nM) [%] | normalised viability ([3]; 100 nM) [%] | normalised viability ([4]; 100 nM) [%] | normalised viability ([5]; 10000 nM) [%] | normalised viability ([6]; 10000 nM) [%] | normalised viability ([7]; 100 nM) [%] | normalised viability ([8]; 10000 nM) [%] | normalised viability ([9]; 100 nM) [%] | normalised viability ([10]; 10000 nM) [%] | normalised viability ([11]; 10000 nM) [%]
1 | C[C@]12CC[C@H](O)CC1=CC[C@@H]1[C@@H]2CC[C@]2(C)C(c3cccnc3)=CC[C@@H]12 [Abiraterone] | 119 | 92.1 | 104 | 90.2 | 83 | 101 | 110 | 107 | 102 | 87.8 | 93.5 | 0 | 0 | 0 | 0 | 0 | 0 | 0 | 0 | 0 | 0 | 0 | 0 | 0 | 0 | 0 | 0 | 0 | – | – | – | – | – | – | – | – | – | – | –
2 | CC(C)(C#N)c1cc(Cn2cncn2)cc(C(C)(C)C#N)c1 [Anastrozole] | – | – | – | – | – | – | – | – | – | – | – | 0 | 0 | 0 | 0 | 0 | 0 | 0 | 0 | 0 | 0 | 0 | 0 | 0 | 0 | 0 | 0 | 0 | 85.1 | 90.2 | 111 | 98.7 | 80.5 | 90.9 | 91.8 | 97.1 | 94.1 | 90.5 | 102
3 | CN(C)CCN1C(=O)c2cccc3cc(N)cc(c23)C1=O [Amonafide] | – | – | – | – | – | – | – | – | – | – | – | 0.749 | 0.97 | 5.69 | 7.32 | 5.33 | 3.78 | 5.45 | 0.876 | 7.96 | 2.28 | 1.1 | 7.74 | 3.57 | 4.67 | 1.26 | 1.69 | 2.78 | 47.9 | 24.3 | 104 | 84.6 | 43.5 | 29.5 | 110 | 44.1 | 81 | 31.6 | 20.8
4 | O=C(O)CCCc1ccc(N(CCCl)CCCl)cc1 [Chlorambucil] | – | – | – | – | – | – | – | – | – | – | – | 0 | 0 | 0 | 0 | 0 | 0 | 0 | 0 | 6.58 | 0 | 0 | 0 | 0 | 0 | 4.32 | 0 | 0 | 74.7 | 91 | 107 | 112 | 96 | 52.8 | 111 | 83.3 | 114 | 85.8 | 80.4
5 | CNNCc1ccc(C(=O)NC(C)C)cc1 [Procarbazine] | – | – | – | – | – | – | – | – | – | – | – | 0 | 0 | 0 | 0 | 0 | 0 | 0 | 0 | 0 | 0 | 0 | 0 | 0.866 | 0 | 0 | 0 | 0 | 89.5 | 88.2 | 96.4 | 91.3 | 93.6 | 81.7 | 109 | 81.5 | 109 | 97.8 | 106
